The structures appear in SMILES notation. Some results are limits rather than exact numbers.

The assay concerns the target T1, human SARM1(50-724) (Homo sapiens, UniProt Q6SZW1).
T1 construct: 40 nM human SARM1(50-724)
T1 sequence (Q6SZW1 50-724): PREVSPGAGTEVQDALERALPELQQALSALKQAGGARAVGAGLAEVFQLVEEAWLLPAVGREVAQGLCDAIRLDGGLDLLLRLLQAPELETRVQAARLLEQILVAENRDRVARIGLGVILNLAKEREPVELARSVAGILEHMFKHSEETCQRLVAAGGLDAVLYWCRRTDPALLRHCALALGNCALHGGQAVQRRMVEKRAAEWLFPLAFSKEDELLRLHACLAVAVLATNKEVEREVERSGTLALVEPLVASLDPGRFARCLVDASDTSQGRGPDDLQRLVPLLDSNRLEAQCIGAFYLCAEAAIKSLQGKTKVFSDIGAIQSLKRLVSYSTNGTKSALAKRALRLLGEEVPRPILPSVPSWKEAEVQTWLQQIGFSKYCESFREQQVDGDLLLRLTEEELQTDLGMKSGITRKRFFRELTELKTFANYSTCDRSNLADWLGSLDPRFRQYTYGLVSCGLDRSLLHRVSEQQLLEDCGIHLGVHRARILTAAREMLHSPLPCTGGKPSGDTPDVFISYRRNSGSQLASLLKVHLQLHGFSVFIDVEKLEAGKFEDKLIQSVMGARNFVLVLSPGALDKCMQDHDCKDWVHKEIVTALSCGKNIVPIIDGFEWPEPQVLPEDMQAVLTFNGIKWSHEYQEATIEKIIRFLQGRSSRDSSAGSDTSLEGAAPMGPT
Put plainly: SARM1 NADase biochemical assay (HPLC of NAD and NAM). To be noted: 40 nM human SARM1(50-724), 0.3 mM NMN, 20 μM NAD, 60 minutes room temperature; dose-response from 100 μM, 1:3 dilution. As for the experimental part:
Each reaction was run at a volume of 20 μL containing 50 μM compound (dissolved in DMSO; final concentration of DMSO is 1% v/v), 40 nM human SARM1(50-724), 0.3 mM NMN, 20 μM NAD, 1 mM TCEP, 25 mM HEPES pH 7.4, 10 mM KCl and 10 mM MgCl2. The reaction was incubated at room temperature for 60 minutes and quenched with 20 μL of 0.4% formic acid. The samples were run on Agilent HPLC 1260 Infinity II with Synergi 2.5 μM Fusion-RP 100 Å (100×3.0 mm) LC column from Phenomenex. Total run time for each sample was 4 minutes. The run was isocratic with 1.5% methanol in 40 mM ammonium acetate pH 6.0. Samples were run at a flow rate of 0.8 mL/min at 55° C. Peak areas of NAD and NAM were determined using OpenLAB CDS (Chem Station edition) software. For dose-response, the compound was diluted serially 1:3 in DMSO and added to the reaction starting at a final compound concentration of 100 μM in 1% DMSO.
By IC50 is commonly meant the midpoint of a concentration-inhibition curve. As to `Cc1c(-c2ccncc2)n[nH]c1NC(=O)CCc1ccc(Cl)nc1` [Example 38, 3-(6-Chloropyridin-3-yl)-N-(4-methyl-3-(pyridin-4-yl)-1H-pyrazol-5-yl)propanamide], the IC50 was below 1000 nM.

As to `Cc1c(-c2ccncc2)n[nH]c1NC(=O)CCc1ccc(Cl)cn1` [Example 39, 3-(5-Chloropyridin-2-yl)-N-(4-methyl-3-(pyridin-4-yl)-1H-pyrazol-5-yl)propanamide], the IC50 was 1000 to 10000 nM.

For the molecule `Cc1c(-c2ccncc2)n[nH]c1NC(=O)CCc1cc(F)c(Cl)cc1F` [Example 40, 3-(4-Chloro-2,5-difluorophenyl)-N-(4-methyl-3-(pyridin-4-yl)-1H-pyrazol-5-yl)propanamide], the IC50 was below 1000 nM.

As to `Cc1c(-c2ccncc2)n[nH]c1NC(=O)CCc1ccc(Cl)cc1F` [Example 41, 3-(4-Chloro-2-fluorophenyl)-N-(4-methyl-3-(pyridin-4-yl)-1H-pyrazol-5-yl)propanamide], the IC50 was below 1000 nM.

As to `Cc1cc(Cl)ccc1CCC(=O)Nc1[nH]nc(-c2ccncc2)c1C` [Example 42, 3-(4-Chloro-2-methylphenyl)-N-(4-methyl-3-(pyridin-4-yl)-1H-pyrazol-5-yl)propanamide], the IC50 was below 1000 nM.

With `Cc1cc(CCC(=O)Nc2[nH]nc(-c3ccncc3)c2C)ccc1Cl` [Example 43, 3-(4-Chloro-3-methylphenyl)-N-(4-methyl-3-(pyridin-4-yl)-1H-pyrazol-5-yl)propanamide], the IC50 was below 1000 nM.

On to `Cc1c(-c2ccncc2)n[nH]c1NC(=O)CCc1ccc(F)c(F)c1` [Example 44, 3-(3,4-Difluorophenyl)-N-(4-methyl-3-(pyridin-4-yl)-1H-pyrazol-5-yl)propanamide], for which the IC50 is below 1000 nM.

For the molecule `Cc1c(-c2ccncc2)n[nH]c1NC(=O)CCc1ccc(F)cc1F` [Example 45, 3-(2,4-Difluorophenyl)-N-(4-methyl-3-(pyridin-4-yl)-1H-pyrazol-5-yl)propanamide], the IC50 was below 1000 nM.

As to `Cc1c(-c2ccncc2)n[nH]c1NC(=O)CCc1ccc(I)cc1` [Example 46, 3-(4-Iodophenyl)-N-(4-methyl-3-(pyridin-4-yl)-1H-pyrazol-5-yl)propanamide], the IC50 was below 1000 nM.

Consider `Cc1c(-c2ccncc2)n[nH]c1NC(=O)CCc1cc(Cl)c(Cl)c(Cl)c1` [Example 47, N-(4-Methyl-3-(pyridin-4-yl)-1H-pyrazol-5-yl)-3-(3,4,5-trichlorophenyl)propanamide], for which the IC50 was below 1000 nM.

`Cc1c(-c2ccncc2)n[nH]c1NC(=O)CCc1cc(F)c(Cl)c(F)c1` [Example 48, 3-(4-Chloro-3,5-difluorophenyl)-N-(4-methyl-3-(pyridin-4-yl)-1H-pyrazol-5-yl)propanamide]: the IC50 was below 1000 nM.

In the case of `Cc1c(-c2ccncc2)n[nH]c1NC(=O)CCc1ccc(Cl)c(F)c1F` [Example 49, 3-(4-Chloro-2,3-difluorophenyl)-N-(4-methyl-3-(pyridin-4-yl)-1H-pyrazol-5-yl)propanamide], the IC50 is below 1000 nM.

On to `Cc1c(-c2ccncc2)n[nH]c1NC(=O)CCc1cc(F)c(F)c(F)c1` [Example 50, N-(4-Methyl-3-(pyridin-4-yl)-1H-pyrazol-5-yl)-3-(3,4,5-trifluorophenyl)propanamide], for which the IC50 was below 1000 nM.

Take `Cc1c(-c2ccncc2)n[nH]c1NC(=O)CCc1ccc(F)c(F)c1F` [Example 51, N-(4-Methyl-3-(pyridin-4-yl)-1H-pyrazol-5-yl)-3-(2,3,4-trifluorophenyl)propanamide]: the IC50 is below 1000 nM.

Turning to `Cc1c(-c2ccncc2)n[nH]c1NC(=O)CCc1cc(F)c(F)cc1F` [Example 52, N-(4-Methyl-3-(pyridin-4-yl)-1H-pyrazol-5-yl)-3-(2,4,5-trifluorophenyl)propanamide], the concentration for half-maximal inhibition (IC50) was below 1000 nM.

For `Cc1c(-c2ccncc2)n[nH]c1NC(=O)CCc1ccc(C#N)c(F)c1` [Example 53, 3-(4-Cyano-3-fluorophenyl)-N-(4-methyl-3-(pyridin-4-yl)-1H-pyrazol-5-yl)propanamide], the IC50 is below 1000 nM.

As for `Cc1c(-c2ccncc2)n[nH]c1NC(=O)CCc1ccc(OC(F)(F)F)cc1` [Example 54, N-(4-Methyl-3-(pyridin-4-yl)-1H-pyrazol-5-yl)-3-(4-(trifluoromethoxy)phenyl)propanamide], the IC50 is below 1000 nM.

For the molecule `Cc1c(-c2ccncc2)n[nH]c1NC(=O)CCc1ccc(OC(F)F)cc1` [Example 55, 3-(4-(Difluoromethoxy)phenyl)-N-(4-methyl-3-(pyridin-4-yl)-1H-pyrazol-5-yl)propanamide], the IC50 was below 1000 nM.

`Cc1c(-c2ccncc2)n[nH]c1NC(=O)CCc1ccc(CF)cc1` [Example 56, 3-(4-(Fluoromethyl)phenyl)-N-(4-methyl-3-(pyridin-4-yl)-1H-pyrazol-5-yl)propanamide]: the 50% inhibitory concentration (IC50) was below 1000 nM.

On to `Cc1c(-c2ccncc2)n[nH]c1NC(=O)CCc1ccc(C(F)F)cc1` [Example 57, 3-(4-(Difluoromethyl)phenyl)-N-(4-methyl-3-(pyridin-4-yl)-1H-pyrazol-5-yl)propanamide], for which the IC50 is below 1000 nM.

Take `Cc1c(-c2ccncc2)n[nH]c1NC(=O)CCc1c(F)c(F)c(F)c(F)c1F` [Example 58, N-(4-Methyl-3-(pyridin-4-yl)-1H-pyrazol-5-yl)-3-(perfluorophenyl)propanamide]: the IC50 was below 1000 nM.

As to `Cc1c(-c2ccncc2)n[nH]c1NC(=O)CCc1ccc(F)nc1` [Example 59, 3-(6-Fluoropyridin-3-yl)-N-(4-methyl-3-(pyridin-4-yl)-1H-pyrazol-5-yl)propanamide], the IC50 was below 1000 nM.

For `Cc1c(-c2ccncc2)n[nH]c1NC(=O)CCc1cnc(F)nc1` [Example 60, 3-(2-Fluoropyrimidin-5-yl)-N-(4-methyl-3-(pyridin-4-yl)-1H-pyrazol-5-yl)propanamide], the IC50 is below 1000 nM.

Take `Cc1c(-c2ccncc2)n[nH]c1NC(=O)CCc1cnc(Cl)nc1` [Example 61, 3-(2-Chloropyrimidin-5-yl)-N-(4-methyl-3-(pyridin-4-yl)-1H-pyrazol-5-yl)propanamide]: the IC50 was below 1000 nM.

With `Cc1c(-c2ccncc2)n[nH]c1NC(=O)COc1ccc(Cl)cc1` [Example 62, 2-(4-Chlorophenoxy)-N-(4-methyl-3-(pyridin-4-yl)-1H-pyrazol-5-yl)acetamide], the IC50 is below 1000 nM.

Turning to `Cc1c(-c2ccncc2)n[nH]c1NC(=O)CSc1ccc(Cl)cc1` [Example 63, 2-((4-Chlorophenyl)thio)-N-(4-methyl-3-(pyridin-4-yl)-1H-pyrazol-5-yl)acetamide], the IC50 is below 1000 nM.

Regarding `Cc1c(-c2ccncc2)n[nH]c1NC(=O)CCc1ccc(Cl)c(F)c1` [Example 64, 3-(4-Chloro-3-fluorophenyl)-N-(4-methyl-3-(pyridin-4-yl)-1H-pyrazol-5-yl)propanamide], the IC50 is below 1000 nM.

Turning to `Cc1c(-c2ccncc2)n[nH]c1NC(=O)CCc1cc(F)c(C#N)c(F)c1` [Example 65, 3-(4-Cyano-3,5-difluorophenyl)-N-(4-methyl-3-(pyridin-4-yl)-1H-pyrazol-5-yl)propanamide], the concentration for half-maximal inhibition (IC50) is below 1000 nM.

As for `Cc1c(-c2ccncc2)n[nH]c1NC(=O)CC1CCCc2ccccc21` (stereo not drawn) [Example 66, N-[4-Methyl-3-(pyridin-4-yl)-1H-pyrazol-5-yl]-2-(1,2,3,4-tetrahydronaphthalen-1-yl)acetamide], the IC50 was 1000 to 10000 nM.

Consider `Cc1c(-c2ccncc2)n[nH]c1NC(=O)CC1CCc2cc(Cl)ccc21` (stereo not drawn) [Example 67, 2-(5-Chloro-2,3-dihydro-1H-inden-1-yl)-N-[4-methyl-3-(pyridin-4-yl)-1H-pyrazol-5-yl]acetamide], for which the IC50 was below 1000 nM.

Consider `Cc1c(-c2ccncc2)n[nH]c1NC(=O)CC1CCCc2cc(Cl)ccc21` (stereo not drawn) [Example 68, 2-(6-Chloro-1,2,3,4-tetrahydronaphthalen-1-yl)-N-[4-methyl-3-(pyridin-4-yl)-1H-pyrazol-5-yl]acetamide], for which the IC50 fell in the range of 1000 to 10000 nM.

On to `Cc1c(-c2ccncc2)n[nH]c1NC(=O)/C(F)=C(\F)c1ccc(Cl)cc1` [Example 69, (E)-3-(4-chlorophenyl)-2,3-difluoro-N-(4-methyl-3-(pyridin-4-yl)-1H-pyrazol-5-yl)acrylamide], for which the IC50 fell in the range of 1000 to 10000 nM.

As to `Cc1c(-c2ccncc2)n[nH]c1NC(=O)C#Cc1ccc(Cl)cc1` [Example 72, 3-(4-Chlorophenyl)-N-(4-methyl-3-(pyridin-4-yl)-1H-pyrazol-5-yl)propiolamide], the IC50 is 1000 to 10000 nM.

The values above are taken from patent US12404265B2, “Substituted pyridine derivatives as SARM1 inhibitors” (Nura Bio, Inc., priority 2020, dated 2025).
